Common to all, as to assay type: cell-based
Assay [1] has as its target T1, α1β2γ2 GABAA receptor (β2 subunit) (Rattus norvegicus, UniProt P63138).
T1 construct: gene Gabrb2; recombinant α1β2γ2 receptor expressed in Xenopus laevis oocytes; with GABAA α1 (Gabra1) and γ2 (Gabrg2) subunits
The assay can be described thus: two-electrode voltage clamp, % IGABA at […] compound, GABA EC0.[…].

Assay [2] addresses T1, α1β2γ2 GABAA receptor (β2 subunit). In words: two-electrode voltage clamp, potentiation of IGABA at GABA EC10-20.
For assay [3], the target named is T2, α1β1γ2 GABAA receptor (β1 subunit) (Rattus norvegicus, UniProt P15431).
T2 construct: gene Gabrb1; recombinant α1β1γ2 receptor expressed in Xenopus laevis oocytes; with GABAA α1 (Gabra1) and γ2 (Gabrg2) subunits
T2 sequence (P15431 26-474): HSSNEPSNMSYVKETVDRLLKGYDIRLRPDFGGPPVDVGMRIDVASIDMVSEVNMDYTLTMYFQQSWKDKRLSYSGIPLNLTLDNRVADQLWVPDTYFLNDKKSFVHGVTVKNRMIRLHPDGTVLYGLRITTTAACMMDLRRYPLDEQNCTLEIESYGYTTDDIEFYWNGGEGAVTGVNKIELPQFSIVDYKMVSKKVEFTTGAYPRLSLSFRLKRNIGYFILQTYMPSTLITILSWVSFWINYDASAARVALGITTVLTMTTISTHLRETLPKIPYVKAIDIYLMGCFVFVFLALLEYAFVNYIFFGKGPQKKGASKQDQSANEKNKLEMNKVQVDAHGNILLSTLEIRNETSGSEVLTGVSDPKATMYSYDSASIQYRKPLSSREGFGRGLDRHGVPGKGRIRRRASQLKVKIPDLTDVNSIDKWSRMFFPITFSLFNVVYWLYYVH
T2 sequence (P62813 28-455 partner): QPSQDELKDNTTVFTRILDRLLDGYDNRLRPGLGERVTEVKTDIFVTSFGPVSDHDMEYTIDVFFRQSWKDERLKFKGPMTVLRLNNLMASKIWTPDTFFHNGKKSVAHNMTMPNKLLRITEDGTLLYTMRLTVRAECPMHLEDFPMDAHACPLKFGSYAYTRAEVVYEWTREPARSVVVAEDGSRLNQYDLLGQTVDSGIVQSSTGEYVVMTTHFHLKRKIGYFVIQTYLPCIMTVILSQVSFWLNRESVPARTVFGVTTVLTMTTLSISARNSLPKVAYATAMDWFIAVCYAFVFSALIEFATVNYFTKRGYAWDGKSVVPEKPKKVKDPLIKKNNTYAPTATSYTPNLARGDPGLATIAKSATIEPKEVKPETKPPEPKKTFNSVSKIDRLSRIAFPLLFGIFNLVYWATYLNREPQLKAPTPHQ
T2 sequence (P18508 39-466 partner): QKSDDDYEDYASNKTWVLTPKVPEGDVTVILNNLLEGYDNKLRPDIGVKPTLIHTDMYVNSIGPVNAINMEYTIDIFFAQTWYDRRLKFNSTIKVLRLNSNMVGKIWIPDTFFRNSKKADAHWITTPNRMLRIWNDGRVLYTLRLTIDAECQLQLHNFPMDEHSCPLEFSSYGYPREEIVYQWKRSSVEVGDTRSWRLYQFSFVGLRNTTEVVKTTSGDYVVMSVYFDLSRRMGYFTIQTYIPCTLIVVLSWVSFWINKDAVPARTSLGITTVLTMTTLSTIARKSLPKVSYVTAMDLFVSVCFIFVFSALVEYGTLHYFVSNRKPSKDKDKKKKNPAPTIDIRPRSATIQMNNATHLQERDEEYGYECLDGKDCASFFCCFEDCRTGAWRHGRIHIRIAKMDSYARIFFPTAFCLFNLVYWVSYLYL
The assay is described as above.

Like-named read-outs stand apart in the source and are kept apart here.

T1 sequence (P63138 26-474): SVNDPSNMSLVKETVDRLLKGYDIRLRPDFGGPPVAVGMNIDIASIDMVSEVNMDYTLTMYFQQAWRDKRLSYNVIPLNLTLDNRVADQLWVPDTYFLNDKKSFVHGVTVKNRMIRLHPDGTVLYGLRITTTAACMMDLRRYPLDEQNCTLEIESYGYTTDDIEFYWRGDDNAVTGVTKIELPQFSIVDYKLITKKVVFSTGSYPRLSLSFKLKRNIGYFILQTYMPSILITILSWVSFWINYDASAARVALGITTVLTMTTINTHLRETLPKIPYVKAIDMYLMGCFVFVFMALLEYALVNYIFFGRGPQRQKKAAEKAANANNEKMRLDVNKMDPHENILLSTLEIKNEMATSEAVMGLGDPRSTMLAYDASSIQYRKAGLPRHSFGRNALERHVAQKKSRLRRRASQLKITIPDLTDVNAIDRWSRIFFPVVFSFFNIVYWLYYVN
T1 sequence (P62813 28-455 partner): as the sequence (P62813 28-455 partner) above
T1 sequence (P18508 39-466 partner): as the sequence (P18508 39-466 partner) above

`C=CCc1ccc(O)c(-c2ccccc2C)c1` [8b] registered an activation at 3 µM in assay [1] of 207 ± 33%. On to `C=CCc1ccc(O)c(-c2cccc(OC)c2)c1` [8f], for which the activation at 3 µM in assay [1] was 136 ± 32%. As for `C=CCc1ccc(O)c(-c2ccc(OC)cc2)c1` [8g], the EC50 in assay [2] (read-out: EC50) is roughly 7 µM; in assay [3] (read-out: EC50), 30 µM. For the compound `C=CCc1ccc(O)c(-c2cccc(C(=O)OC)c2)c1` [8i], the activation at 3 µM in assay [1] turned out to be 406 ± 70%.

For the compound `C=CCc1ccc(O)c(-c2cc(CC=C)ccc2O)c1` [compound 1, magnolol], the activation at 3 µM in assay [1] came to 338 ± 93%. In the case of `C=CCc1ccc(O)c(-c2ccc(O)c(CC=C)c2)c1` [compound 2, honokiol], the EC50 in assay [2] and in assay [3] was 20 µM each time.

The values above are taken from publication PMC4297288, “Metal-assisted synthesis of unsymmetrical magnolol and honokiol analogs and their biological assessment as GABAA receptor ligands” (Bioorganic & Medicinal Chemistry Letters, 2015).
